Measurements reported in patent US10383880B2 (Reset Therapeutics, Inc., priority 2012, dated 2019).
pEC50: −log10 of the molar value.

System: Per2-dLuc U2OS reporter cells
Experiment: Per2 assay for evaluating the potency of test compounds (high-throughput circadian assay)
Assay type: cell-based
Conditions: Homo sapiens, U2OS, stable U2OS reporter cells harboring Per2-dLuc; luminescence monitored over 4-5 days at 35° C.
Experimental: Compounds were screened by using a high-throughput circadian assay system as previously described in Zhang, E. E. et al. Cell, 2009, 139, 199-210. In brief, stable U2OS reporter cells harboring Per2-dLuc were plated at a density of 8,000 cells/well in Corning 96-well, solid white, flat bottom, TC-treated microplates (Corning®), and incubated for 24 hours at 37° C. in the presence of 5% CO2. The cells were then synchronized by serum shock by media exchange to a minimal explant media (10 mM HEPES (pH 7.0), 2% B27, 1×PSG (Invitrogen®), and 1.0 mM beetle luciferin (Promega®)) followed by the addition of the compounds of formula I dissolved in dimethylsulfoxide (0.5% final dimethylsulfoxide concentration). Gene expression was monitored by measuring luminescence (TecanR M200) over 4-5 days at 35° C. The period, amplitude, and phase of the associated circadian rhythms were determined using Multicycle™ software (Actimetrics, Inc). EC50 values of the compounds of formula I were calculated using Graphpad™ (Prism®).

| Compound | pEC50 |
| --- | --- |
| CC(C)N(CC(O)Cn1c2cc(F)ccc2c2ccc(F)cc21)S(C)(=O)=O (centres unmarked) [Compound 159, N-(3-(2,7-Difluoro-9H-carbazol-9-yl)-2-hydroxypropyl)-N-isopropylmethanesulfonamide] | 6.30 |
| CC(O)(CN1CCC(C)(C)S1(=O)=O)Cn1c2ccc(F)cc2c2cc(F)ccc21 (centres unmarked) [Compound 180, 2-(3-(3,6-Difluoro-9H-carbazol-9-yl)-2-hydroxy-2-methylpropyl)-5,5-dimethylisothiazolidine-1,1-dioxide] | 5.78 |
| CS(=O)(=O)N(CC(O)Cn1c2ccccc2c2ccccc21)c1ccc2sccc2c1 (centres unmarked) [Compound 65, N-(3-(9H-Carbazol-9-yl)-2-hydroxypropyl)-N-(benzo[b]thiophen-5-yl)methanesulfonamide] | 5.02 |
| Cc1ccccc1N(CC(O)Cn1c2ccccc2c2ccccc21)S(C)(=O)=O (centres unmarked) [Compound 62, N-(3-(9H-Carbazol-9-yl)-2-hydroxypropyl)-N-o-tolylmethanesulfonamide] | 5.88 |
| CC(C)(C(O)CN1CCCS1(=O)=O)n1c2ccccc2c2ccccc21 (centres unmarked) [Compound 114, 2-(3-(9H-Carbazol-9-yl)-2-hydroxy-3-methylbutyl)-isothiazolidine-1,1-dioxide] | 6.28 |
| O=S1(=O)CCCCN1CC(O)Cn1c2ccccc2c2ccccc21 (centres unmarked) [Compound 33, N-(3-(9H-Carbazol-9-yl)-2-hydroxypropyl)-1,2-thiazinane 1,1-dioxide] | 7.46 |
| CS(=O)(=O)N(CC(O)Cn1c2ccccc2c2ccccc21)c1cccc2ccccc12 (centres unmarked) [Compound 27, N-(3-(9H-Carbazol-9-yl)-2-hydroxypropyl)-N-(naphthalen-1-yl)methanesulfonamide] | 6.60 |
| CS(=O)(=O)N(CC(O)Cn1c2ccc(F)cc2c2cc(F)ccc21)c1ccccc1 (centres unmarked) [Compound 199, N-(3-(3,6-Difluoro-9H-carbazol-9-yl)-2-hydroxypropyl)-N-phenylmethanesulfonamide] | 6.26 |
| CC(C)N1CCN(CC(O)Cn2c3ccc(F)cc3c3cc(F)ccc32)S1(=O)=O (centres unmarked) [Compound 224] | 7.23 |
| CS(=O)(=O)N(Cc1ccccc1F)CC(O)Cn1c2ccccc2c2ccccc21 (centres unmarked) [Compound 68, N-(3-(9H-Carbazol-9-yl)-2-hydroxypropyl)-N-(2-fluorobenzyl)methanesulfonamide] | 5.70 |
| COc1cccc(N(CC(O)Cn2c3ccccc3c3ccccc32)S(C)(=O)=O)c1 (centres unmarked) [Compound 73, N-(3-(9H-Carbazol-9-yl)-2-hydroxypropyl)-N-(3-methoxyphenyl)methanesulfonamide] | 5.52 |
| CC(O)(CN(Cc1ccco1)S(C)(=O)=O)Cn1c2ccccc2c2ccccc21 (centres unmarked) [Compound 240, N-(3-(9H-Carbazol-9-yl)-2-hydroxy-2-methylpropyl)-N-(furan-2-yl-methyl)methane-sulfonamide] | 5.97 |
| COC1CCCC(N(CC(O)Cn2c3ccccc3c3ccccc32)S(C)(=O)=O)C1 (centres unmarked) [Compound 139, N-(3-(9H-Carbazol-9-yl)-2-hydroxypropyl)-N-(3-methoxycyclohexyl)methanesulfonamide] | 6.58 |
| O=S1(=O)CCCCN1CC(O)Cn1c2ccc(F)cc2c2c(F)cccc21 (centres unmarked) [Compound 107, N-(3-(3,5-Diflouoro-9H-carbazol-9-yl)-2-hydroxypropyl)-1,2-thiazinane 1,1-dioxide] | 6.62 |
| CS(=O)(=O)N(Cc1ccco1)CC(O)Cn1c2ccccc2c2ccc(F)cc21 (centres unmarked) [Compound 237, N-(3-(2-Fluoro-9H-carbazol-9-yl)-2-hydroxy-propyl)-N-(furan-2-yl-methyl)methane-sulfonamide] | 6.23 |
| O=S1(=O)N(CC(O)Cn2c3ccc(F)cc3c3cc(F)ccc32)CCC1(F)F (centres unmarked) [Compound 185, 2-(3-(3,6-Difluoro-9H-carbazol-9-yl)-2-hydroxypropyl)-5,5-difluoroisothiazolidine-1,1-dioxide] | 7.35 |
| CN(CC(O)Cn1c2cc(F)ccc2c2c(F)cccc21)S(C)(=O)=O (centres unmarked) [Compound 98, N-(3-(2,5-Difluoro-9H-carbazol-9-yl)-2-hydroxypropyl)-N-methylmethanesulfonamide] | 5.09 |
| O=S1(=O)c2ccccc2CCN1CC(O)Cn1c2ccccc2c2ccccc21 (centres unmarked) [Compound 43, N-(3-(9H-Carbazol-9-yl)-2-hydroxypropyl)-3,4-dihydro-2H-benzo[e][1,2]thiazine 1,1-dioxide] | 5.52 |
| CC1CCCC1N(CC(O)Cn1c2ccccc2c2ccccc21)S(C)(=O)=O (centres unmarked) [Compound 136, N-(3-(9H-Carbazol-9-yl)-2-hydroxypropyl)-N-(2-methylcyclopentyl)methanesulfonamide] | 6.95 |

| Compound | pEC50 |
| --- | --- |
| CS(=O)(=O)N(Cc1ccco1)CC(O)Cn1c2ccc(F)cc2c2ccc(F)cc21 (centres unmarked) [Compound 102, N-(3-(2,6-Difluoro-9H-carbazol-9-yl)-2-hydroxypropyl)-N-(furan-2-ylmethyl)methanesulfonamide] | 5.49 |
| CS(=O)(=O)N(CC(O)Cn1c2ccccc2c2ccccc21)c1cccc(Cl)c1 (centres unmarked) [Compound 64, N-(3-(9H-Carbazol-9-yl)-2-hydroxypropyl)-N-(3-chlorophenyl)methanesulfonamide] | 6.00 |
| Cn1ccc2ccc(N(CC(O)Cn3c4ccccc4c4ccccc43)S(C)(=O)=O)cc21 (centres unmarked) [Compound 66, N-(3-(9H-Carbazol-9-yl)-2-hydroxypropyl)-N-(1-methyl-1H-indol-6-yl)methanesulfonamide] | 5.00 |
| CS(=O)(=O)N(CC(O)Cn1c2ccccc2c2ccccc21)C1CC2CCC1O2 (single isomer, unassigned) [Compound 140A, N-(3-(9H-Carbazol-9-yl)-2-hydroxypropyl)-N-(7-oxabicyclo[2.2.1]heptan-2-yl)methanesulfonamide] | 6.30 |
| COc1ccc(N(CC(O)Cn2c3ccccc3c3ccccc32)S(C)(=O)=O)cc1 (centres unmarked) [Compound 21, N-(3-(9H-Carbazol-9-yl)-2-hydroxypropyl)-N-(4-methoxyphenyl)methanesulfonamide] | 6.36 |
| CC(=O)N1CCC(N(CC(O)Cn2c3ccccc3c3ccccc32)S(C)(=O)=O)CC1 (centres unmarked) [Compound 59, N-(3-(9H-Carbazol-9-yl)-2-hydroxypropyl)-N-(1-acetylpiperidin-4-yl)methanesulfonamide] | 5.02 |
| CS(=O)(=O)N(CC(O)Cn1c2ccc(F)cc2c2cc(F)ccc21)c1ccc(C2CC2)cc1 (centres unmarked) [Compound 207, N-(4-Cyclopropylphenyl)-N-(3-(3,6-difluoro-9H-carbazol-9-yl)-2-hydroxypropyl)methanesulfonamide] | 5.53 |
| CCOCc1ccc(N(CC(O)Cn2c3ccc(F)cc3c3cc(F)ccc32)S(C)(=O)=O)cc1 (centres unmarked) [Compound 208, N-(3-(3,6-Difluoro-9H-carbazol-9-yl)-2-hydroxypropyl)-N-(4-(ethoxymethyl)phenyl)methanesulfonamide] | 5.33 |
| CCOCCS(=O)(=O)N(Cc1ccco1)CC(O)Cn1c2ccccc2c2ccccc21 (centres unmarked) [Compound 12, N-(3-(9H-Carbazol-9-yl)-2-hydroxypropyl)-2-ethoxy-N-(furan-2-ylmethyl)ethanesulfonamide] | 5.99 |
| CCN1CCN(CC(C)(O)Cn2c3ccc(F)cc3c3cc(F)ccc32)S1(=O)=O (centres unmarked) [Compound 219] | 5.80 |
| CS(=O)(=O)N(CC(O)Cn1c2ccc(F)cc2c2cc(F)ccc21)c1ccc(-n2cccn2)cc1 (centres unmarked) [Compound 213, N-(4-(1H-Pyrazol-1-yl)phenyl)-N-(3-(3,6-difluoro-9H-carbazol-9-yl)-2-hydroxypropyl)methanesulfonamide] | 5.53 |
| CC(C)N1CCCN(CC(O)Cn2c3ccc(F)cc3c3cc(F)ccc32)S1(=O)=O (centres unmarked) [Compound 217, 2-(3-(3,6-Difluoro-9H-carbazol-9-yl)-2-hydroxypropyl)-6-isopropyl-1,2,6-thiadiazinane-1,1-dioxide] | 5.78 |
| O=S(=O)(N(Cc1ccco1)CC(O)Cn1c2ccccc2c2ccccc21)C(F)(F)F (centres unmarked) [Compound 83, N-(3-(9H-Carbazol-9-yl)-2-hydroxypropyl)-1,1,1-trifluoro-N-(furan-2-ylmethyl)methanesulfonamide] | 6.38 |
| COC1CN(CC(O)Cn2c3ccc(F)cc3c3cc(F)ccc32)S(=O)(=O)C1 (centres unmarked) [Compound 181, 2-(3-(3,6-Difluoro-9H-carbazol-9-yl)-2-hydroxypropyl)-4-methoxyisothiazolidine-1,1-dioxide] | 6.76 |
| O=S1(=O)CCCN1CC(O)Cn1c2cc(F)ccc2c2ccc(F)cc21 (centres unmarked) [Compound 92, N-(3-(2,7-Difluoro-9H-carbazol-9-yl)-2-hydroxypropyl)-isothiazolidine-1,1-dioxide] | 7.40 |
| CC(O)(CN1CCN(C2CCC2)S1(=O)=O)Cn1c2ccc(F)cc2c2cc(F)ccc21 (centres unmarked) [Compound 235] | 5.19 |
| O=S1(=O)C(F)CCN1CC(O)Cn1c2ccccc2c2ccccc21 (centres unmarked) [Compound 120, 2-(3-(9H-Carbazol-9-yl)-2-hydroxypropyl)-5-fluoro-isothiazolidine-1,1-dioxide] | 7.64 |
| CS(=O)(=O)N(CC(O)Cn1c2ccccc2c2ccccc21)C1CC(F)C1 (centres unmarked) [Compound 147, N-(3-(9H-Carbazol-9-yl)-2-hydroxypropyl)-N-(3-fluorocyclobutyl)methanesulfonamide] | 6.01 |

Same assay, conditions: stable U2OS reporter cells harboring Per2-dLuc; luminescence monitored over 4-5 days at 35° C.

| Compound | pEC50 |
| --- | --- |
| CC1CCCC1N(CC(O)Cn1c2ccc(F)cc2c2cc(F)ccc21)S(C)(=O)=O (single isomer, unassigned) [Compound 193C, N-(3-(3,6-Difluoro-9H-carbazol-9-yl)-2-hydroxypropyl)-N-(2-methylcyclopentyl)methanesulfonamide] | 5.35 |
